Results taken from patent publication US20150104870A1, “NEURONAL DIFFERENTIATION PROMOTER” (KEIO UNIVERSITY, priority 2012, published 2015).
Entries after “also recorded” stand apart in the source; their conditions may differ.

Legend:
p2 neurospheres = experiment: Mouse ESC-derived neurosphere differentiation assay; format: cell-based; conditions: for neuronal differentiation (βIII-tubulin-positive neurons) of p2 neurospheres: lentiviral overexpression in NSCs from p0 stage, differentiated at p2, control miR-LacZ
Method: (§1) Mouse ESC (EB3) culture, EB formation, neurosphere formation and differentiation of neurosphere were performed as previously described (Nat. Neurosci. 11, 1014-1023 (2008)). Human NSCs were grown as previously described (J. Neurosci. Res. 69, 869-879 (2002); J. Neurosci. Res. 87, 307-317 (2009)) without […] growth factor (EGF), and allowed to differentiate on a substrate-coated coverslips in the absence of mitogen for 14 days, a procedure similar to that used for mouse neurosphere.
(§2) Immunocytechemistry and immunohistochemistry were performed as previously described (Nat. Neurosci. 11, 1014-1023 (2008)) using antibodies against βIII-tubulin, NeuN (neural marker), glial fibrillary acidic protein (GFAP, astrocyte marker), and haemagglutinin (HA).

[1] = system: human fetal brain-derived neurospheres; experiment: Human neurosphere differentiation assay; format: cell-based; conditions: human neurospheres treated with inhibitor, vs control
Method: as §1, §2

[2] = system: miR-17 binding site in 3′UTR of p38 mRNA; experiment: DsRed-Express2 reporter assay (Mp38 sensor) in HEK293 cells; format: cell-based, human; conditions: HEK293 stable transformant, FACS one week after lentivirus, compared to miR-LacZ
From the text: FIG. 17 is a graph showing that miR-17 binds to a binding site in the 3′ untranslated region (UTR) of mouse p38 mRNA. […] The miR-17 binding site in 3′UTR of p38 mRNA (to be referred to as “Mp38 sensor”; 2970-2992 of NM_011951) was cloned into a mammal expression vector of the DsRed-Express2 reporter system. After transformation of HEK293 cells, lentiviruses expressing miR-LacZ or miR-17 were introduced into a stable transformant. One week later, the intracellular expression level of DsRed-Express2 was analyzed by FACS. […] (t-test, n (≧3000 cells)=3, **P<0.01). Bars and error bars represent the mean+s.e.m for each condition.

developing mouse brain = experiment: In utero lentiviral microinjection, fate of infected cells in cerebral cortex; format: in vivo; conditions: lentivirus injected in utero at E10.5, examined at P30
Method: Experiments were performed using ICR mice. All aspects of animal care and treatment were carried according to the guidelines of the Experimental Animal Committee of Keio University School of Medicine. In utero microinjection of lentivirus particles into the brain of E10.5 ICR mouse was guided by an in vivo ultrasound real-time scanner (Vevo660; VisualSonics).
as §2

Gfap promoter = experiment: Bisulfite sequencing of CpG methylation status; format: cell-based, mouse
From the text: The methylation frequency of 10 CpG sequences on the Gfap promoter, including the CpG site in the STAT3-binding sequence as indicated by the arrows, was examined. The graphs show the percentages of methylated CpG cytosines in the whole Gfap promoter (left graph) and the STAT3-binding region (right graph) (t test, n (≧10 clones)=3, NS (not significant), P>0.05). Bars and error bars represent the mean+s.e.m for each condition.

p38 = experiment: Western blotting of p38 expression in neurospheres; format: cell-based, mouse; conditions: p2 neurospheres

## C[S+]([O-])c1ccc(-c2nc(-c3ccncc3)c(-c3ccc(F)cc3)[nH]2)cc1 (stereo not drawn) [SB203580, reference compound]
p2 neurospheres; mouse p2 neurospheres, treatment with inhibitor during growth, vs control
  percentage of neurons differentiated from p2 neurospheres (neuropotency): showed higher neuropotency than controls; also recorded: increased the percentage of neurons differentiated from p2 neurospheres
[1]
  percentage of neurons differentiated from human neurospheres (neuropotency): restored neuropotency; also recorded: increased the percentage of neurons differentiated from the neurospheres

## miR-17: miRNA targeting p38, SEQ ID NO: 5, overexpressed by lentivirus (guide CAAAGUGCUUACAGUGCAGGUAG; listed as Mus musculus)
[2]
  DsRed-Express2 reporter expression linked to Mp38 sensor / interaction with p38 mRNA: direct interaction; also recorded: caused a decrease in DsRed-Express2
Developing mouse brain
  infected cells fated to become neurons in the cerebral cortex: 97.6%
Gfap promoter; p2 neurosphere stage, overexpression from p0
  CpG methylation of Gfap promoter: no significant changes in the extent of CpG methylation
Gfap promoter; p3 neurospheres
  DNA methylation status of the Gfap promoter: did not change significantly
p2 neurospheres; LIF (10 ng/ml) and BMP2 (100 ng/ml) during differentiation, p2 stage
  differentiation of p2 neurospheres in presence of gliogenic cytokines: differentiated exclusively into neurons; also recorded: did not undergo gliogenesis
p2 neurospheres; lentiviral infection at onset of p3 stage, within 1 week
  neuropotency of p3 neurospheres: marked recovery of neuropotency; also recorded: restored neuropotency of mouse p3 neurospheres
p2 neurospheres
  neuronal differentiation (βIII-tubulin-positive neurons) of p2 neurospheres: replicated the phenotype induced by the intact miR-17-92 cluster
p38
  p38 protein expression: suppressed p38 expression at p2 stage

## miR-106a: miRNA targeting p38, SEQ ID NO: 6, paralog of miR-17 (CAAAGUGCUAACAGUGCAGGUAG; listed as RNA, chemistry not fully specified; listed as Mus musculus)
p2 neurospheres
  neuronal differentiation (βIII-tubulin-positive neurons) of p2 neurospheres: led to a neuronal phenotype

## miR-106b: miRNA targeting p38, SEQ ID NO: 7, paralog of miR-17 (UAAAGUGCUGACAGUGCAGAU; listed as RNA, chemistry not fully specified; listed as Mus musculus)
p2 neurospheres
  neuronal differentiation (βIII-tubulin-positive neurons) of p2 neurospheres: led to a neuronal phenotype; also recorded: stronger than that of miR-106a
